Test systems include LXFL 529 NSCLC; DMS 273 small cell lung; SNB-78 CNS; DLD-1 colon; DMS 114 small cell lung; HOP-18 NSCLC; RXF-631 renal; MDA-N; KM20L2 colon.
Experiment in all cases: NCI tumour cell line growth inhibition, 48 h

≈ marks a conversion by molar mass, not a printed value.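 Briefly, cells in 96-well plates were exposed to five compound concentrations for 48 h, and endpoints were estimated by linear interpolation. GI50: concentration for 50% inhibition of growth. TGI is the concentration that stops growth completely.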 Bounds are passed on as bounds.

For `CC(=O)[O-].[Mn+3].[O-]c1ccc(Cl)cc1C=NCCN=Cc1cc(Cl)ccc1[O-]`, the GI50 in the test with LXFL 529 NSCLC was > 100 µM; with DMS 273 small cell lung, > 100 µM; with SNB-78 CNS, > 100 µM; in the test on DLD-1 colon it was 36.9 µM; in the test with DMS 114 small cell lung, > 100 µM; in the test on HOP-18 NSCLC it was 51.9 µM. For the same molecule, the TGI in the test on LXFL 529 NSCLC, in the test on DMS 273 small cell lung, in the test on SNB-78 CNS, in the test with DLD-1 colon, in the test with DMS 114 small cell lung and in the test on HOP-18 NSCLC was > 100 µM each time.

`N#CCCN(CCC#N)c1ccc(C=Nc2ccc(F)cc2)cc1`: the TGI with RXF-631 renal, in the test with LXFL 529 NSCLC, in the test with DMS 273 small cell lung, in the test on SNB-78 CNS, with DLD-1 colon and in the test with MDA-N was > 100 µM in each case. Besides, the TGI in the test with DMS 114 small cell lung, with KM20L2 colon and in the test on HOP-18 NSCLC was > 100 µM each time.

Take `Cc1nc2c(Br)cc(Br)cc2c(=O)n1-c1ccccc1NC1OCC(O)C(O)C1O` (centres undefined): in the test on MDA-N, the TGI is > 100 µM.

For `O=CC1=CCC2c3[nH]c4ccccc4c3CCN2C1` (centres undefined), the TGI in the test on LXFL 529 NSCLC is 137 µM; in the test on DMS 273 small cell lung, 212 µM; with DLD-1 colon it was 226 µM; with DMS 114 small cell lung, 266 µM; in the test with KM20L2 colon, > 396 µM; in the test with HOP-18 NSCLC it was > 396 µM.

On to `O=C1CNN=C(Cn2nc(-c3ccccc3)c3ccccc3c2=O)N1`, for which the TGI in the test with LXFL 529 NSCLC, in the test with DMS 273 small cell lung, with SNB-78 CNS, in the test on DLD-1 colon, with DMS 114 small cell lung and in the test with HOP-18 NSCLC was > 100 µM in each case.

Turning to `O=C(/C=C(\[O-])c1ccccc1)CCCCCCC(=O)/C=C(\[O-])c1ccccc1.O=C(/C=C(\[O-])c1ccccc1)CCCCCCC(=O)/C=C(\[O-])c1ccccc1.O=C(/C=C(\[O-])c1ccccc1)CCCCCCC(=O)/C=C(\[O-])c1ccccc1.[Nd+3].[Nd+3]`, in the test with KM20L2 colon, the GI50 is > 50 µM and the TGI was > 50 µM.

With `CN(C)c1ccc(C2CC(C)(O)Oc3cc4c(cc32)OCO4)cc1` (centres undefined), the TGI in the test on MDA-N was > 100 µM.

With `CC1=CCN(c2ccccn2)OC1c1ccccc1` (centres undefined), the TGI in the test on RXF-631 renal, in the test with LXFL 529 NSCLC, in the test with DMS 273 small cell lung, in the test with SNB-78 CNS, in the test with DLD-1 colon and with DMS 114 small cell lung was > 100 µM each time. Besides, the TGI with KM20L2 colon and in the test with HOP-18 NSCLC was > 100 µM each time.

Turning to `CC(=O)OCC1OC(n2c(=S)n(-c3ccccc3)c(=O)c3cc(Br)cc(Br)c32)C(OC(C)=O)C(OC(C)=O)C1OC(C)=O` (centres undefined), the TGI with LXFL 529 NSCLC, with DMS 273 small cell lung, in the test with SNB-78 CNS, with DLD-1 colon, in the test with DMS 114 small cell lung and in the test with KM20L2 colon was > 100 µM throughout.

Regarding `CC1CC(C)C(C(O)CC2CC(=O)N(c3ccccc3)C(=O)C2)C(O)C1` (centres undefined), the TGI in the test with LXFL 529 NSCLC, in the test on DMS 273 small cell lung, with SNB-78 CNS, with DLD-1 colon, in the test on DMS 114 small cell lung and in the test on KM20L2 colon was > 100 µM in each case. Also, the TGI in the test on HOP-18 NSCLC was > 100 µM.

Take `C[C@]12CCC3=NCCN3C1=CC[C@@H]1[C@@H]2CC[C@@]2(C)[C@H]1CC[C@]2(C)O`: in the test on MDA-N, the TGI was > 100 µM.

As to `C/C(CC(=O)Nc1cccc([N+](=O)[O-])c1)=N\NC(=O)C[n+]1ccccc1`, the TGI in the test with LXFL 529 NSCLC, with SNB-78 CNS, in the test on DLD-1 colon, with DMS 114 small cell lung and in the test on KM20L2 colon was > 100 µM throughout.

With `COCC1N=C(c2cc(OC)c(OC)c(OC)c2-c2cc3c(cc2[C@H](C)O)OCO3)O[C@H]1c1ccccc1` (some centres undefined), the TGI in the test with RXF-631 renal, with LXFL 529 NSCLC, in the test with DMS 273 small cell lung, in the test with SNB-78 CNS, in the test on DLD-1 colon and in the test on KM20L2 colon was > 100 µM in each case. In addition, in the test on HOP-18 NSCLC, the TGI was > 100 µM.

For `O=C(O)Cn1ccc(=O)c2cc([N+](=O)[O-])ccc21`, the TGI in the test with MDA-N is > 100 µM.

Turning to `Nc1ccc(C(=O)/C=C/c2ccccc2O)cc1`, the TGI with RXF-631 renal, with LXFL 529 NSCLC, in the test on SNB-78 CNS, with DLD-1 colon and with KM20L2 colon was > 100 µM throughout.

For the molecule `Cc1ccc(S(=O)(=O)N2CCC(C(=O)O)(c3ccccc3)CC2)cc1`, the TGI with MDA-N was > 100 µM.

As for `COc1ccc(/C(CC2OC(=O)c3ccccc32)=N\NC(N)=O)cc1` (centres undefined), in the test on MDA-N, the TGI is > 100 µM.

`COc1cc(CCc2ccc(OC(C)=O)cc2)cc(OC)c1OC`: the TGI in the test with LXFL 529 NSCLC, in the test with DMS 273 small cell lung, in the test on SNB-78 CNS, with DLD-1 colon, with DMS 114 small cell lung and in the test with KM20L2 colon was > 100 µM in each case. Further, in the test with HOP-18 NSCLC, the TGI was > 100 µM.

Consider `COc1cc(N(CCC#N)CCC#N)ccc1/C(N=Nc1ccc(C(=O)O)cc1)=N/NC(=O)c1cc(Br)ccc1O`, for which, in the test on MDA-N, the GI50 was 108 µg/mL (≈ 175 µM) and the TGI was > 150 µg/mL.

On to `CN(C)c1ccc(O[Si](Oc2ccc(N(C)C)cc2)(Oc2ccc(N(C)C)cc2)Oc2ccc(N(C)C)cc2)cc1`, for which the TGI with LXFL 529 NSCLC, in the test with DLD-1 colon, in the test with DMS 114 small cell lung, with KM20L2 colon and with HOP-18 NSCLC was > 100 µM throughout.

In the case of `Nc1ncnc2c1nc(Cl)n2C1OC(CO)C(O)C1O` (centres undefined), the TGI with MDA-N is > 100 µM.

(Values after PubChem BioAssay (NCI).)
